In patent US9873709B2 (priority 2013, dated 2018):
Structures can show the parent of a compound that is named as a salt.

Tested on: JAK1-dependent STAT6 phosphorylation downstream of IL-13 stimulation in TF-1 human erythroleukemia cells
Experiment: cells
Conditions: TF-1, read-out: IL-13-pSTAT6 IC50

Compound	IC50 [nM]
O=C(c1ccc(Nc2nc3c(N4CCC(O)(c5ccc(Cl)cc5)CC4)cccn3n2)cc1)N1C[C@H]2CNC[C@H]2C1 [Example 1-235, [(3aR,6aS)-2,3,3a,4,6,6a-hexahydro-1H-pyrrolo[3,4-c]pyrrol-5-yl]-[4-[[8-[4-(4-chlorophenyl)-4-hydroxy-1-piperidyl]-[1,2,4]triazolo[1,5-a]pyridin-2-yl]amino]phenyl] methanone]	310
O=C(N[C@H]1[C@@H]2CNC[C@@H]21)c1ccc(Nc2nc3c(N4CCC(O)(c5ccc(Cl)cc5)CC4)cccn3n2)cc1 [Example 1-238, N-[(1R,5S)-3-azabicyclo[3.1.0]hexan-6-yl]-4-[[8-[4-(4-chlorophenyl)-4-hydroxy-1-piperidyl]-[1,2,4]triazolo[1,5-a]pyridin-2-yl]amino]benzamide]	180
O=C(c1ccc(Nc2nc3c(N4CCC(O)(c5ccc(Cl)cc5)CC4)cccn3n2)cc1)N1CC[C@H]2CNC[C@H]21 [Example 1-241, [(3aS,6aS)-3,3a,4,5,6,6a-hexahydro-2H-pyrrolo[2,3-c]pyrrol-1-yl]-[4-[[8-[4-(4-chlorophenyl)-4-hydroxy-1-piperidyl]-[1,2,4]triazolo[1,5-a]pyridin-2-yl]amino]phenyl] methanone]	115
CN1CCC(N(C)C(=O)c2ccc(Nc3nc4c(N5CCC(C)(c6ccc(Cl)cc6)CC5)cccn4n3)cc2)CC1 [Example 1-262, 4-[[8-[4-(4-chlorophenyl)-4-methyl-1-piperidyl]-[1,2,4]triazolo[1,5-a]pyridin-2-yl]amino]-N-methyl-N-(1-methyl-4-piperidyl)benzamide]	120
CN1CCC(N(C)C(=O)c2ccc(Nc3nc4c(N5CCC(CC#N)(c6ccc(Cl)c(F)c6)CC5)cccn4n3)cc2)CC1 [Example 1-263, 4-[[8-[4-(4-chloro-3-fluoro-phenyl)-4-(cyanomethyl)-1-piperidyl]-[1,2,4]triazolo[1,5-a]pyridin-2-yl]amino]-N-methyl-N-(1-methyl-4-piperidyl)benzamide]	18.2
CNC(=O)CC1(c2ccc(Cl)cc2)CCN(c2cccn3nc(Nc4ccc(C(=O)N(C)C5CCN(C)CC5)cc4)nc23)CC1 [Example 1-299, 4-[[8-[4-(4-chlorophenyl)-4-[2-(methylamino)-2-oxo-ethyl]-1-piperidyl]-[1,2,4]triazolo[1,5-a]pyridin-2-yl]amino]-N-methyl-N-(1-methyl-4-piperidyl)benzamide]	55.7
CN1CCC(N(C)C(=O)c2ccc(Nc3nc4c(N5CCC(CC(=O)O)(c6ccc(Cl)cc6)CC5)cccn4n3)cc2)CC1 [Example 1-301, 2-[4-(4-chlorophenyl)-1-[2-[4-[methyl-(1-methyl-4-piperidyl)carbamoyl]anilino]-[1,2,4]triazolo[1,5-a]pyridin-8-yl]-4-piperidyl]acetic acid]	179

Other lines, results leading:

IC50 [nM]	Compound
23.7	CCOC(=O)N1CC=C(c2cccn3nc(Nc4ccc(C(=O)N(C)C5CCN(C)CC5)cc4)nc23)CC1 [Example 2-1, ethyl 4-[2-[4-[methyl-(1-methyl-4-piperidyl)carbamoyl]anilino]-[1,2,4]triazolo[1,5-a]pyridin-8-yl]-3,6-dihydro-2H-pyridine-1-carboxylate]
34	CN1CCC(N(C)C(=O)c2ccc(Nc3nc4c(C5=CCN(C(=O)OC6CC6)CC5)cccn4n3)cc2)CC1 [Example 2-2, cyclopropyl 4-[2-[4-[methyl-(1-methyl-4-piperidyl)carbamoyl]anilino]-[1,2,4]triazolo[1,5-a]pyridin-8-yl]-3,6-dihydro-2H-pyridine-1-carboxylate]
163	CN1CCC(N(C)C(=O)c2ccc(Nc3nc4c(C5=CCN(C(=O)CC(C)(C)O)CC5)cccn4n3)cc2)CC1 [Example 2-3, 4-[[8-[1-(3-hydroxy-3-methyl-butanoyl)-3,6-dihydro-2H-pyridin-4-yl]-[1,2,4]triazolo[1,5-a]pyridin-2-yl]amino]-N-methyl-N-(1-methyl-4-piperidyl)benzamide]
1090	CN1CCC(N(C)C(=O)c2ccc(Nc3nc4c(C5=CCN(C(=O)N6CC(C#N)C6)CC5)cccn4n3)cc2)CC1 [Example 2-5, 4-[[8-[1-(3-cyanoazetidine-1-carbonyl)-3,6-dihydro-2H-pyridin-4-yl]-[1,2,4]triazolo[1,5-a]pyridin-2-yl]amino]-N-methyl-N-(1-methyl-4-piperidyl)benzamide]
42.9	CN1CCC(N(C)C(=O)c2ccc(Nc3nc4c(C5=CCN(C(=O)OCC#N)CC5)cccn4n3)cc2)CC1 [Example 2-7, cyanomethyl 4-[2-[4-[methyl-(1-methyl-4-piperidyl)carbamoyl]anilino]-[1,2,4]triazolo[1,5-a]pyridin-8-yl]-3,6-dihydro-2H-pyridine-1-carboxylate]
849	CN1CCC(N(C)C(=O)c2ccc(Nc3nc4c(C5=CCN(Cc6ccccc6)CC5)cccn4n3)cc2)CC1 [Example 2-8, 4-[[8-(1-benzyl-3,6-dihydro-2H-pyridin-4-yl)-[1,2,4]triazolo[1,5-a]pyridin-2-yl]amino]-N-methyl-N-(1-methyl-4-piperidyl)benzamide; hydrochloride]
620	CN1CCC(N(C)C(=O)c2ccc(Nc3nc4c(C5=CCN(C(=O)CCO)CC5)cccn4n3)cc2)CC1 [Example 2-9, 4-[[8-[1-(3-hydroxypropanoyl)-3,6-dihydro-2H-pyridin-4-yl]-[1,2,4]triazolo[1,5-a]pyridin-2-yl]amino]-N-methyl-N-(1-methyl-4-piperidyl)benzamide]
6.7	CCOC(=O)N1CC=C(c2cccn3nc(Nc4ccc(C(=O)NCC(C)(C)N5CCOCC5)cc4)nc23)CC1 [Example 2-11, ethyl 4-[2-[4-[(2-methyl-2-morpholino-propyl)carbamoyl]anilino]-[1,2,4]triazolo[1,5-a]pyridin-8-yl]-3,6-dihydro-2H-pyridine-1-carboxylate]
338	CCOC(=O)N1CC=C(c2cccn3nc(Nc4ccc(C(=O)NCCC5CCNCC5)cc4)nc23)CC1 [Example 2-13, ethyl 4-[2-[4-[2-(4-piperidyl)ethylcarbamoyl]anilino]-[1,2,4]triazolo[1,5-a]pyridin-8-yl]-3,6-dihydro-2H-pyridine-1-carboxylate]
17.1	CCOC(=O)N1CC=C(c2cccn3nc(Nc4ccc(C(=O)N5CCCC5c5ccncc5)cc4)nc23)CC1 (stereo not shown) [Example 2-15, ethyl 4-[2-[4-[2-(4-pyridyl)pyrrolidine-1-carbonyl]anilino]-[1,2,4]triazolo[1,5-a]pyridin-8-yl]-3,6-dihydro-2H-pyridine-1-carboxylate]
55.7	CCOC(=O)N1CC=C(c2cccn3nc(Nc4ccc(C(=O)N5CCN(c6cccnc6)CC5)cc4)nc23)CC1 [Example 2-19, ethyl 4-[2-[4-[4-(3-pyridyl)piperazine-1-carbonyl]anilino]-[1,2,4]triazolo[1,5-a]pyridin-8-yl]-3,6-dihydro-2H-pyridine-1-carboxylate]
256	CCOC(=O)N1CC=C(c2cccn3nc(Nc4ccc(C(=O)N5CCN(C)CC(CO)C5)cc4)nc23)CC1 (stereo not shown) [Example 2-20, ethyl 4-[2-[4-[6-(hydroxymethyl)-4-methyl-1,4-diazepane-1-carbonyl]anilino]-[1,2,4]triazolo[1,5-a]pyridin-8-yl]-3,6-dihydro-2H-pyridine-1-carboxylate]
